For experiment [1], the target named is T1, IDE (Homo sapiens, UniProt P14735).
T1 construct: made in house; host or cells: bacteria
T1 sequence (P14735 1-1019): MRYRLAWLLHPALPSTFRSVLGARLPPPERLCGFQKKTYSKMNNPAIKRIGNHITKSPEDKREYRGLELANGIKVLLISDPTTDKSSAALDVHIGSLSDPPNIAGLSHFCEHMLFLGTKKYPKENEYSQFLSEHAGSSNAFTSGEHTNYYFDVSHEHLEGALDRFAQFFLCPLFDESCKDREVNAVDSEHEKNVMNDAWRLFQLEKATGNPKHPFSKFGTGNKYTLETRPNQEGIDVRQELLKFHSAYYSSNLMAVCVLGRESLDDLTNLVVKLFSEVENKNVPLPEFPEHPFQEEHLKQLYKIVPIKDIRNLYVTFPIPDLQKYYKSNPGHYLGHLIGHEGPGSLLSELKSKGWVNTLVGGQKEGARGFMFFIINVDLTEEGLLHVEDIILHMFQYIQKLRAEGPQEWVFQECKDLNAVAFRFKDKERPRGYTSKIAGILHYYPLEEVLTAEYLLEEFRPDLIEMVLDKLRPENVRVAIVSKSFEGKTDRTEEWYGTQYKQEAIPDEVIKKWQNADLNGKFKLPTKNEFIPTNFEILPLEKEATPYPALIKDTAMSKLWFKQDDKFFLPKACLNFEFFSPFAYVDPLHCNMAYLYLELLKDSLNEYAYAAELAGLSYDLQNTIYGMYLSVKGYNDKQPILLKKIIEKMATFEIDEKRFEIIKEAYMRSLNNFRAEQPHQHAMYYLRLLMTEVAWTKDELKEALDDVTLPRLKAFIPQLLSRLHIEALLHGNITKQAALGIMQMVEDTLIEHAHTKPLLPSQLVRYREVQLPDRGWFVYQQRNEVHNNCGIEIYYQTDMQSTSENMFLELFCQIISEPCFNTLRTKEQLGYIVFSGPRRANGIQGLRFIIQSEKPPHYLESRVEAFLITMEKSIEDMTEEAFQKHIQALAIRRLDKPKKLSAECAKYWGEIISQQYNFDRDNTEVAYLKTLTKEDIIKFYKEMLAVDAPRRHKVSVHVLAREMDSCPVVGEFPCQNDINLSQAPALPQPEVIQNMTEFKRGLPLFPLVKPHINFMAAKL
As to the kind of experiment: IDE activity assay, FAβB (amyloid β-protein) degradation by fluorescence polarization. It counts as biochemical. The conditions noted are these: P12-3A 100 μM. The procedure: (§1) Degradation Assays—IDE activity was quantified by monitoring the degradation of (7-methoxycoumarin-4-yl)acetic acid-[…](2,4-dinitrophenyl) (FRET1, 5 μM) (49,55), fluoresceinated and biotinylated amyloid β-protein (FAβB; 500 nM) or recombinant human insulin (50 nM) in PBS supplemented with 0.05% BSA. FRET1 degradation was measured by changes in fluorescence (λex=340 nm, λem=420 nm); FAβB degradation was monitored by fluorescence polarization (λex=488 nm, λem=525 nm), as described (56); and insulin degradation was quantified by ELISA. In vitro activity assays incorporated recombinant human IDE (1 nM) purified from bacteria (35). For quantitation of insulin degradation in primary murine skin fibroblasts, cells (1×10^5/well) were plated in 96-well plates and maintained in DMEM supplemented with 10% fetal bovine serum (FBS), 2 mM glutamine, penicillin and streptomycin. After addition of insulin (10 nM or 100 nM), samples of conditioned medium were removed daily and quickly frozen, then insulin levels were quantified in parallel by ELISA according to manufacturer's recommendations (Crystal Chem, Downers Grove, Ill., USA). […]

Experiment [2] has as its system 15 different proteases. The experiment in a line: Selectivity of P12-3A against 15 other proteases (MMPs and peptidases of different classes). Format: biochemical. The conditions noted are these: P12-3A 100 μM. The method, then: FIG. 8A-B. Selectivity of P12-3A for IDE vis-à-vis other proteases. Activity of P12-3A (100 μM) against (A) multiple matrix-metalloproteases (MMPs) and (B) multiple peptidases of different protease classes. […] Data are mean±SEM, n=8-16 per group. P<0.05 by 2-tailed Student's t-test. […] See Experimental Procedures for details. NEP, neprilysin; mCatD, murine cathepsin D; hCatD, human cathepsin D.
as §1, with “streptomycin.” for “streptomycin. After addition of insulin (10 nM or 100 nM), samples of conditioned medium were removed daily and quickly frozen, then insulin levels were quantified in parallel by ELISA according to manufacturer's recommendations (Crystal Chem, Downers Grove, Ill., USA).”

Experiment [3] deals with primary murine skin fibroblasts. The experiment in a line: Cell proliferation (CellTiter 96 AQueous). Format: cell-based, mouse. Conditions: 100 μM P12-3A, 10 nM insulin; not statistically significant. The method, then:
FIG. 4A-F. Effects of P12-3A on cultured skin cells. A, Insulin concentrations as a function of time in logarithmically growing primary murine skin fibroblasts in the absence or presence of P12-3A (100 μM). […] Data are mean±SEM of 4 independent replications. *P<0.05, **P<0.01. B, Proliferation of cells in the absence or presence of P12-3A (100 μM). […] C,D,E, P12-3A (100 μM) potentiates insulin-induced collagen production in skin fibroblasts. Collagen production was assessed by COL1A1 mRNA levels (C), levels of hydroxyproline secreted into the medium (D), and cell-associated mature alpha-1 type I collagen levels detected by Western blotting (E). […] Migration of HaCaT cells 48 h after induction of a scratch wound in the presence of the indicated quantities of insulin and/or P12-3A (100 μM). […]
Insulin promotes wound healing and overall skin health by affecting a number of processes, including cell proliferation (2,3), cell migration (5,6), and the production and secretion of ECM components, particularly type I collagen (7-13). We therefore assessed the ability of P12-3A to influence these processes in cultured skin fibroblasts and keratinocytes. To that end, primary mouse skin fibroblasts were grown for 4 d in multiple concentrations of insulin in the presence or absence of P12-3A, and insulin concentration over time was monitored by ELISA. […]

SMILES strings stand for the structures. Entries after “also recorded” stand apart in the source; their conditions may differ. Where a SMILES comes first, the peptide text is derived from it. Bridges are numbered along the chain shown (N, C = ends).

The record followed here is patent US11555055B2, “Peptide inhibitors of insulin-degrading enzyme” (The Regents of the University of California, priority 2017, dated 2023).

Take `CC(C)C[C@H](NC(=O)[C@H](CO)NC(=O)[C@@H](N)CCC(N)=O)C(=O)N1CCC[C@H]1C(=O)N[C@@H](Cc1c[nH]c2ccccc12)C(=O)N[C@H]1CSSC[C@@H](C(=O)N[C@H](C(=O)N[C@H](C(N)=O)[C@@H](C)O)C(C)C)NC(=O)[C@H](Cc2c[nH]cn2)NC(=O)[C@@H]2CCCN2C(=O)[C@H](Cc2ccc(O)cc2)NC1=O` [Peptide P12-3A] (H-QSLPWCYPHCVT-NH2; disulfide 6-10 (inferred)): the “inhibition of IDE in selectivity panel” value in experiment [1] is listed as “significant inhibition”. In addition, in experiment [2], the “inhibition of 15 different proteases” value was “essentially no inhibition”. Besides, the cell proliferation entry in experiment [3] is recorded as “modestly increased; also recorded: No significant differences”.
